This experiment has as its target Serine/threonine-protein kinase 10 (Homo sapiens, UniProt O94804). Description: Inhibition of STK10 (unknown origin) expressed in Sf9 cells assessed as transfer of radiolabelled phosphate group from ATP by reaction biology method.

The term IC50 denotes the concentration that gives 50% inhibition.

Sequence of Serine/threonine-protein kinase 10 (O94804 whole entry): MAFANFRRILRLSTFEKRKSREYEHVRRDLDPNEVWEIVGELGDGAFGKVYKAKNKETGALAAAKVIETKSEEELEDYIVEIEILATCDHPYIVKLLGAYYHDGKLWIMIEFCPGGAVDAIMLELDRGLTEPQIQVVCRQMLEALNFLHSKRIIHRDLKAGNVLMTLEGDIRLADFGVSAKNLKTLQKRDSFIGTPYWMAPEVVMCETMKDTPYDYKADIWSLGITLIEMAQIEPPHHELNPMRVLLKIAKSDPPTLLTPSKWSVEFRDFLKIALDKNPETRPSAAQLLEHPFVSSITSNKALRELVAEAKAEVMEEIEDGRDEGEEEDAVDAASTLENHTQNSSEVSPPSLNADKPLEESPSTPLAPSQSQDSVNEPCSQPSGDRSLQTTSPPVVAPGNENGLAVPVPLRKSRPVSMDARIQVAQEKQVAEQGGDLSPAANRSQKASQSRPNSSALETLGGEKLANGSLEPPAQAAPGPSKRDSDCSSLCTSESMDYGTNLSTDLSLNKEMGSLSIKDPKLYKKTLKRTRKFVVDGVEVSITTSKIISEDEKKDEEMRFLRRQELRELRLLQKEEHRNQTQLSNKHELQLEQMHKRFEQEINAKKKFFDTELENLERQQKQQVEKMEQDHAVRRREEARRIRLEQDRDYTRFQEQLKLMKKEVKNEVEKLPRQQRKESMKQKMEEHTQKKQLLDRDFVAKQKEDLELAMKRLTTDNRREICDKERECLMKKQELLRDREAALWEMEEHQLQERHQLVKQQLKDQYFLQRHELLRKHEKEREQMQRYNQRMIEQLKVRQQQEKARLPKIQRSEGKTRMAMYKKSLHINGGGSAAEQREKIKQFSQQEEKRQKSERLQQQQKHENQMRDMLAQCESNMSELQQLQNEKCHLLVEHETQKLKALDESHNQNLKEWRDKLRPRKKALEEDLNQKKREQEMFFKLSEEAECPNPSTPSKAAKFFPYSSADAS

As to `Cn1cc(C2=C(c3cn(CCCSC(=N)N)c4ccccc34)C(=O)NC2=O)c2ccccc21` [BISINDOLYLMALEIMIDE IX], the IC50 was 99 nM.

For the origin of these results see ChEMBL document CHEMBL4837247, “Discovery of a Potent Dual SLK/STK10 Inhibitor Based on a Maleimide Scaffold” (J Med Chem, 2021).
